Calls of active or inactive are those of the source.
Experiments:
INS1 = experiment: beta cell apoptosis inhibitors, cytokine rescue, dose response, luminescence, retest (AID 449756); type: functional, cell-based; details: Rattus norvegicus;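 further: cell death triggered by IL-1 beta plus TNF-alpha plus IFN-gamma mixture; protective hits raise ATP signal compared with cytokine alone wells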
[1] = biological target: T1, Ubiquitin-conjugating enzyme E2 N (Homo sapiens, UniProt P61088); type: functional;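 further: Dose-response confirmation in a TR-FRET assay detecting UBC13-driven polyubiquitin chain formation, inhibition measured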
T1 sequence (P61088 whole entry): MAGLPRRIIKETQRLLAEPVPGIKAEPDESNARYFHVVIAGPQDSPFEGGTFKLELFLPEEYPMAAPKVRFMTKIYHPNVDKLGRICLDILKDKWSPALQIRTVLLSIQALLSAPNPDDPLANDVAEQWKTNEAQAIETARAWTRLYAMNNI

Protein RecA = biological target: T2, Protein RecA (Mycobacterium tuberculosis, UniProt P9WHJ3); experiment: Fluorescence Cell-Free Homogeneous Dose Retest to Identify Inhibitors of RecA-Intein Splicing Activity. [Related pubchem assays (depositor defined):AID2097, AID2223, AID489010, AID492950]; type: functional
T2 sequence (P9WHJ3 whole entry): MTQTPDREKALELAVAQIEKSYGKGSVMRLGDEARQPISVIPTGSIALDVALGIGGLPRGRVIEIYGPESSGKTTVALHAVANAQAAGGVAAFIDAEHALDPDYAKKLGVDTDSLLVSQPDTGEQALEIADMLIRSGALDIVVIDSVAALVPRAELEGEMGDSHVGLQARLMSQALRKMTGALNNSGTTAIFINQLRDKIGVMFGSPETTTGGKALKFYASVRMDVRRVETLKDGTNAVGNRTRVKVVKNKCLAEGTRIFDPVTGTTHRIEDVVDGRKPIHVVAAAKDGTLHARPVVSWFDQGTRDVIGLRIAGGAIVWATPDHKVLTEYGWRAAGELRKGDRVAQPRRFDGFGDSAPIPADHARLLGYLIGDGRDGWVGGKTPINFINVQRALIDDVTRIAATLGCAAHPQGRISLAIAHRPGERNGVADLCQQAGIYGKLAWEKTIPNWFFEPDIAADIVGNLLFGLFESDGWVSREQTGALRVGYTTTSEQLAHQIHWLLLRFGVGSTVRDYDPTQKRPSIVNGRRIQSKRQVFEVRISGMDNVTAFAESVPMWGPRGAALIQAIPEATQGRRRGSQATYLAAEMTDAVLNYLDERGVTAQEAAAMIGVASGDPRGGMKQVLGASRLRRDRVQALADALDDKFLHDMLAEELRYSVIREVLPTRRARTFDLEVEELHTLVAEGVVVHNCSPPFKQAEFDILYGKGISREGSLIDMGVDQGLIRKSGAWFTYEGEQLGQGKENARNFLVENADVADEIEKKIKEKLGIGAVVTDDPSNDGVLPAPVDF

[2] = biological target: T3, Replicative DNA helicase DnaB (Mycobacterium tuberculosis, UniProt P9WMR3); experiment: DnaB intein splicing inhibitors, dose response, biochemical, cell-free fluorescence (AID 449749); type: functional
T3 sequence (P9WMR3 whole entry): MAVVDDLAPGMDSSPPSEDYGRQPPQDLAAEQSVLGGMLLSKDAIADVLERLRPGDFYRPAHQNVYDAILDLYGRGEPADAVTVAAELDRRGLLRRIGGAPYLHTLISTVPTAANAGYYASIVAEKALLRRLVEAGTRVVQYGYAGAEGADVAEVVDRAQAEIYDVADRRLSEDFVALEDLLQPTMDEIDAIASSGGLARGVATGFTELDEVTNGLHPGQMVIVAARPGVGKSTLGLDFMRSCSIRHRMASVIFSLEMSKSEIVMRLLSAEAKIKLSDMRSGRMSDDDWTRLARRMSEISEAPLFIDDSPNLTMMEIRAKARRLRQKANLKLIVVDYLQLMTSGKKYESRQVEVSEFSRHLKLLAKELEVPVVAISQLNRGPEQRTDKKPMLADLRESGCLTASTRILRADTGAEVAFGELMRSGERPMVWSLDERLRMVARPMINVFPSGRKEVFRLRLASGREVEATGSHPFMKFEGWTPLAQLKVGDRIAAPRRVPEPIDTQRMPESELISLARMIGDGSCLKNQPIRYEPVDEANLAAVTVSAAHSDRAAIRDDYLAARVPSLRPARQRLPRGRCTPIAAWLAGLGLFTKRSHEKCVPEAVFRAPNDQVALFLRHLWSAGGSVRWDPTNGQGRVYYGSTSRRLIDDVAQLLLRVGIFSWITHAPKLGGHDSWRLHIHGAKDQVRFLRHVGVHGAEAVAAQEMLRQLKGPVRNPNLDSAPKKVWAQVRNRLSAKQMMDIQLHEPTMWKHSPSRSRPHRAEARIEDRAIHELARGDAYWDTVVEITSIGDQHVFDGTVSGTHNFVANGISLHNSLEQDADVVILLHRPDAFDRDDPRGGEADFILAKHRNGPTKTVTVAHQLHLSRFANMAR

[3] = inhibitors of intracellular T. cruzi replication, confirmation, NIH3T3 host cells, beta-gal luminescence (AID 2044); type: functional, cell-based;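 further: intracellular parasites grown in NIH/3T3 mouse fibroblasts as host cells; luminescent beta-galactosidase reporter signal from transgenic T. cruzi replicating inside host cells; inhibitors lower the luminescence signal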
[4] = MDA-MB-231 cell growth inhibition, dose response, cytotoxicity control for RAD54 inhibitor project, CellTiter-Glo luminescence, cherry-pick (AID 651692); type: functional, cell-based
Bcl-2-like protein 10 = biological target: T4, Bcl-2-like protein 10 (Homo sapiens, UniProt Q9HD36); experiment: displacers of TR3 peptide from Bcl-B, primary screen, selectivity assay for Bfl-1 inhibitor project, biochemical, fluorescence polarization, FITC-TR3 peptide (AID 748);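 further: fluorescence polarization from a fluorescein-labelled TR3 peptide binding purified Bcl-B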
T4 sequence (Q9HD36 whole entry): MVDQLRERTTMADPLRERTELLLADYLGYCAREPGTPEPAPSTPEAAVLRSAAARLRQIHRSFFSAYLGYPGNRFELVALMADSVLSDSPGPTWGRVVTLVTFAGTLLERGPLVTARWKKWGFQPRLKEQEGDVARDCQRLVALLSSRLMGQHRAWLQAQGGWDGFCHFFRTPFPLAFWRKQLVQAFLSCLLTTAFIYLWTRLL

[5] = C. albicans growth with fluconazole, confirmation, fluorescence, retest (AID 2467); type: functional, cell-based
[6] = biological target: Induced myeloid leukemia cell differentiation protein Mcl-1 (Homo sapiens, UniProt Q07820); type: functional
[7] = biological target: T5, Dual specificity protein phosphatase 6 (Rattus norvegicus, UniProt Q64346); experiment: MKP-3 phosphatase inhibitors, primary screen, biochemical, rat enzyme, in vitro (AID 425)
T5 sequence (Q64346 whole entry): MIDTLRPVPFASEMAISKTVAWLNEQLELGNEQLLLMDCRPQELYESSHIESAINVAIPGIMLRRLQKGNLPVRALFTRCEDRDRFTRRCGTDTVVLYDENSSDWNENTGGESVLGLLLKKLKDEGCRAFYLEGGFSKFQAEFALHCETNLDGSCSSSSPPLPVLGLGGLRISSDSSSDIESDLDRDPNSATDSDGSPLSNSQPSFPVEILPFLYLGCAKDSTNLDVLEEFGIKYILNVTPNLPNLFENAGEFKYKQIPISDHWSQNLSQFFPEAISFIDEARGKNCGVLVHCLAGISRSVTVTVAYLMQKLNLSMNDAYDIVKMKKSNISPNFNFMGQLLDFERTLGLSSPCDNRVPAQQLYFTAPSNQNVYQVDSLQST

Chain of Induced myeloid leukemia cell differentiation protein Mcl-1 (Q07820 whole entry): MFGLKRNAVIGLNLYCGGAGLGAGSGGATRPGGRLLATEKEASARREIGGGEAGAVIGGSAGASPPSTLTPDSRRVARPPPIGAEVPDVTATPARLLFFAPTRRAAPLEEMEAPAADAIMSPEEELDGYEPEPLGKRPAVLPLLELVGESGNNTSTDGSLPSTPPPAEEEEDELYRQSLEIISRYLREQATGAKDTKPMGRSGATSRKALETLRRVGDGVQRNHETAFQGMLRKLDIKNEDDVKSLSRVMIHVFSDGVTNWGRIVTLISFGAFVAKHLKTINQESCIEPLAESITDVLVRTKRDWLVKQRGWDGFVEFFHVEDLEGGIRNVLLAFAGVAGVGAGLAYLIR

For `CCCCCCCCCCOC(=O)Cn1c(COc2ccccc2)[n+](C)c2ccccc21`, the AC50 (INS1) was 3.72 µM (active), the IC50 [1] was > 20 µM (inactive) and the EC50 (Protein RecA) was 9.4 µM (active). For the same compound, the AC50 [2] was 3.6 µM (active) and the EC50 [3] was 1.6 µM (active).

In the case of `CCOC(=O)c1c(-c2ccc(-c3ccccc3)cc2)csc1NC(=O)CNCCN(C)C`, the IC50 [1] is reported as 11.4 µM (active) and the AC50 [4] is reported as 18.4 µM (active).

In the case of `CC(C)[n+]1ccn(C2=C([N-]S(=O)(=O)c3ccccc3)C(=O)c3ccccc3C2=O)c1`, the EC50 (Protein RecA) is reported as 12 µM (active) and the AC50 [2] is reported as 12.3 µM (active).

With `COc1cc(-c2nnc(SCc3cc(=O)oc4cc(O)c(O)cc34)o2)cc(OC)c1OC` the IC50 (Bcl-2-like protein 10) was 0.493 µM (active), the EC50 [5] was > 38 µM (not active) and the IC50 [6] was 3.77 µM (active).

With `N#Cc1c(NC(=O)c2ccc(Br)o2)n(-c2ccccc2)c2nc3ccccc3nc12` the IC50 [7] was 96.9 µM (active).

Source: ChEMBL document CHEMBL1201862, “PubChem BioAssay data set” (2004)
